Laboratory results as given in patent US20110039847A1, “AMIDE DERIVATIVES AS SIRTUIN MODULATORS” (Sirtris Pharmaceuticals, Inc, priority 2007, published 2011).
Where a name gives a salt, the structure may show the parent alone.

Target: T1, SIRT1 (Homo sapiens, UniProt Q96EB6)
T1 sequence (Q96EB6 1-747): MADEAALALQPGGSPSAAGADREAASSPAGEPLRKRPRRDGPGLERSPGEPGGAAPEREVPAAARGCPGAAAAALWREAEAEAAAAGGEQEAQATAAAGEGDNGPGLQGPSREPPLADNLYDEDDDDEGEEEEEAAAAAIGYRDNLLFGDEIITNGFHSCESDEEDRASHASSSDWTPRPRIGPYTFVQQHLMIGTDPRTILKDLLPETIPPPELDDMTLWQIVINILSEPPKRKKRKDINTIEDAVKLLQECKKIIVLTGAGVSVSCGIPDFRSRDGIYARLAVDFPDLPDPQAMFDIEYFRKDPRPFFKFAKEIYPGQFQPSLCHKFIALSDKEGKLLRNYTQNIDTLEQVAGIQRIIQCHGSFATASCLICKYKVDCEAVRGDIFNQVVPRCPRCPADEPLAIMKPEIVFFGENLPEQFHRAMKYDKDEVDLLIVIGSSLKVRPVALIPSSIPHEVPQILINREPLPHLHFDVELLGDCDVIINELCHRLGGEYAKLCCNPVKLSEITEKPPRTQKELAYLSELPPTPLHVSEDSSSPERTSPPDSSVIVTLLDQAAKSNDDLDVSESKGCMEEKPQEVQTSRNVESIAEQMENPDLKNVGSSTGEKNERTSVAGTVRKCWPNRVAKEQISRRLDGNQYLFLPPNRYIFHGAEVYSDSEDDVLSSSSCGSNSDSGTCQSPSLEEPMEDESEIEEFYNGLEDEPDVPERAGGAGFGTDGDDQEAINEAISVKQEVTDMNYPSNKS
Experiment: Mass spectrometry based SIRT1 deacetylation (activation) assay
Format: biochemical
Settings: 0.5 μM peptide substrate, 120 μM βNAD+, 10 nM SIRT1, 25 min at 25° C.; for Emax: 25 min, read-out: % Fold Act. (percent maximum fold activation)
Source text: A mass spectrometry based assay was used to identify modulators of SIRT1 activity. The mass spectrometry based assay utilizes a peptide having 20 amino acid residues as follows: Ac-EE-K(biotin)-GQSTSSHSK(Ac)NleSTEG-K(5TMR)-EE-NH2 (SEQ ID NO: 1) wherein K(Ac) is an acetylated lysine residue and Nle is a norleucine. The peptide is labeled with the fluorophore 5TMR (excitation 540 nm/emission 580 nm) at the C-terminus. The sequence of the peptide substrate is based on p53 with several modifications. In addition, the methionine residue naturally present in the sequence was replaced with the norleucine because the methionine may be susceptible to oxidation during synthesis and purification.
The mass spectrometry assay is conducted as follows: 0.5 μM peptide substrate and 120 μM βNAD^+ is incubated with 10 nM SIRT1 for 25 minutes at 25° C. in a reaction buffer (50 mM Tris-acetate pH 8, 137 mM NaCl, 2.7 mM KCl, 1 mM MgCl2, 5 mM DTT, 0.05% BSA). Test compounds may be added to the reaction as described above. […] After the 25 minute incubation with SIRT1, 10 μL of 10% formic acid is added to stop the reaction. Reactions are sealed and frozen for later mass spec analysis. Determination of the mass of the substrate peptide allows for precise determination of the degree of acetylation (i.e. starting material) as compared to deacetylated peptide (product).
A control for inhibition of sirtuin activity is conducted by adding 1 μL of 500 mM nicotinamide as a negative control at the start of the reaction (e.g., permits determination of maximum sirtuin inhibition). A control for activation of sirtuin activity is conducted using 10 nM of sirtuin protein, with 1 μL of DMSO in place of compound, to determine the amount of deacetylation of the substrate at a given timepoint within the linear range of the assay. This timepoint is the same as that used for test compounds and, within the linear range, the endpoint represents a change in velocity.
For the above assay, SIRT1 protein was expressed and purified as follows. […] The protein was expressed by induction with 1 mM IPTG as an N-terminal His-tag fusion protein at 18° C. overnight and harvested at 30,000×g. Cells were lysed with lysozyme in lysis buffer (50 mM Tris-HCl, 2 mM Tris[2-carboxyethyl]phosphine (TCEP), 10 μM ZnCl2, 200 mM NaCl) and further treated with sonication for 10 min for complete lysis. The protein was purified over a Ni-NTA column (Amersham) and fractions containing pure protein were pooled, concentrated and run over a sizing column (Sephadex S200 26/60 global). The peak containing soluble protein was collected and run on an Ion-exchange column (MonoQ). Gradient elution (200 mM-500 mM NaCl) yielded pure protein. This protein was concentrated and dialyzed against dialysis buffer (20 mM Tris-HCl, 2 mM TCEP) overnight. The protein was aliquoted and frozen at −80° C. until further use.

Row | SMILES | EC1.5 | Emax
1 | CN(C)CCNc1cc(C(=O)Nc2ccccc2C(=O)Nc2ccccc2)nc(-c2ccccc2)n1 [Compound 128, 6-(2-(dimethylamino)ethylamino)-2-phenyl-N-(2-(phenylcarbamoyl)phenyl)pyrimidine-4-carboxamide] | B (EC1.5>1 and ≦10 uM) | 150 to 300%
2 | CN(C)CCNc1cc(C(=O)Nc2ccccc2C(N)=O)nc(-c2ccccc2)n1 [Compound 3] | B (EC1.5>1 and ≦10 uM) | ≥ 300%
3 | CN(C)CCNc1cc(C(=O)Nc2ccccc2-c2nnc(-c3ccncc3)s2)nc(-c2ccccc2)n1 [Compound 78] | A (EC1.5≦1 uM) | ≥ 300%
4 | CCN(CCN(C)C)c1cc(C(=O)Nc2ccccc2C(=O)NC2CCCCC2)nc(-c2ccccc2)n1 [Compound 165, N-(2-(cyclohexylcarbamoyl)phenyl)-6-((2-(dimethylamino)ethyl)(ethyl)amino)-2-phenylpyrimidine-4-carboxamide] | A (EC1.5≦1 uM) | 150 to 300%
5 | Cc1cccc(NC(=O)c2ccccc2NC(=O)c2cc(NCCN(C)C)nc(-c3ccccc3)n2)c1 [Compound 146, 6-(2-(dimethylamino)ethylamino)-2-phenyl-N-(2-(m-tolylcarbamoyl)phenyl)pyrimidine-4-carboxamide] | B (EC1.5>1 and ≦10 uM) | ≥ 300%
6 | CCN(CCN(C)C)c1cc(C(=O)Nc2ccccc2-c2nnc(C3CCOCC3)s2)nc(-c2ccccc2)n1 [Compound 93, 6-((2-(dimethylamino)ethyl)(ethyl)amino)-2-phenyl-N-(2-(5-(tetrahydro-2H-pyran-4-yl)-1,3,4-thiadiazol-2-yl)phenyl)pyrimidine-4-carboxamide hydrochloride] | A (EC1.5≦1 uM) | ≥ 300%
7 | COCCN(CCOC)c1cc(C(=O)Nc2ccccc2-c2nnc(C(=O)N3CCOCC3)s2)nc(-c2ccccc2)n1 [Compound 92] | A (EC1.5≦1 uM) | ≥ 300%
8 | COCCN(CCOC)c1cc(C(=O)Nc2ccccc2-c2nnc(N3CCOCC3)s2)nc(-c2ccccc2)n1 [Compound 106] | A (EC1.5≦1 uM) | 150 to 300%
9 | CN(C)CCN(C)c1cc(C(=O)Nc2ccccc2-c2nnc(-c3ccccc3)s2)nc(-c2ccccc2)c1 [Compound 35] | A (EC1.5≦1 uM) | 150 to 300%
10 | CNCCN(C)c1cc(C(=O)Nc2ccccc2-c2nnc(-c3ccccc3)s2)nc(-c2ccccc2)n1 [Compound 32] | A (EC1.5≦1 uM) | ≥ 300%
11 | CCCCc1nnc(-c2ccccc2NC(=O)c2cc(N(CC)CCN(C)C)nc(-c3ccccc3)n2)s1 [Compound 62] | A (EC1.5≦1 uM) | 150 to 300%
12 | CCN(CCN(C)C)c1cc(C(=O)Nc2ccccc2C(=O)NC2CCCNC2)nc(-c2ccccc2)n1 (stereo not drawn) [Compound 174, 6-((2-(dimethylamino)ethyl)(ethyl)amino)-2-phenyl-N-(2-(piperidin-3-ylcarbamoyl)phenyl)pyrimidine-4-carboxamide] | B (EC1.5>1 and ≦10 uM) | ≥ 300%
13 | CN(C)CCNc1cc(C(=O)Nc2ccccc2-n2cc(-c3ccccc3)cn2)nc(-c2ccccc2)n1 [Compound 24] | B (EC1.5>1 and ≦10 uM) | 150 to 300%
14 | CN(C)CCNc1cc(C(=O)Nc2ccccc2-c2ccncc2)nc(-c2ccccc2)n1 [Compound 10] | B (EC1.5>1 and ≦10 uM) | 150 to 300%
15 | Cc1nnc(-c2ccccc2NC(=O)c2cc(NCCN(C)C)nc(-c3ccccc3)n2)o1 [Compound 20] | B (EC1.5>1 and ≦10 uM) | ≥ 300%
16 | CC(=O)c1ccccc1NC(=O)c1cc(NC2CCN(C)CC2)nc(-c2ccccc2)n1 [Compound 143] | A (EC1.5≦1 uM) | ≥ 300%
17 | COC(=O)c1ccccc1NC(=O)c1cc(NCCN(C)C)nc(-c2ccccc2)n1 [Compound 5] | A (EC1.5≦1 uM) | ≥ 300%

Row | SMILES | EC1.5 | Emax
18 | CN(C)CCNc1cc(C(=O)Nc2ccccc2C(=O)Nc2c(Cl)cccc2Cl)nc(-c2ccccc2)n1 [Compound 162, N-(2-(2,6-dichlorophenylcarbamoyl)phenyl)-6-(2-(dimethylamino)ethylamino)-2-phenylpyrimidine-4-carboxamide] | A (EC1.5≦1 uM) | ≥ 300%
19 | CCN(CCN(C)C)c1cc(C(=O)Nc2ccccc2-c2nnc(CC(C)C)s2)nc(-c2ccccc2)n1 [Compound 80] | B (EC1.5>1 and ≦10 uM) | 150 to 300%
20 | CCc1ccccc1NC(=O)c1cc(NCCN(C)C)nc(-c2ccccc2)n1 [Compound 1] | C (EC1.5>10 uM) | 150 to 300%
21 | CCN(CCN(C)C)c1cc(C(=O)Nc2ccccc2-c2ncc(C(C)(C)C)s2)nc(-c2ccccc2)c1 [Compound 42] | A (EC1.5≦1 uM) | 150 to 300%
22 | CN(C)CCNc1cc(C(=O)Nc2ccccc2-c2ccccc2)nc(-c2ccccc2)n1 [Compound 2] | C (EC1.5>10 uM) | < 150%
23 | Cc1nnc(-c2ccccc2NC(=O)c2cc(NCCN(C)C)nc(-c3ccccc3)n2)s1 [Compound 21] | A (EC1.5≦1 uM) | 150 to 300%
24 | CCN(CCN(C)C)c1cc(C(=O)Nc2ccccc2-c2nncs2)nc(-c2ccccc2)n1 [Compound 41] | A (EC1.5≦1 uM) | ≥ 300%
25 | CCCCc1nnc(-c2ccccc2NC(=O)c2cc(NCCN(C)C)nc(-c3ccccc3)n2)s1 [Compound 61] | B (EC1.5>1 and ≦10 uM) | < 150%
26 | CCN(CCN(C)C)c1cc(C(=O)Nc2ccccc2-c2nnc(C(C)C)s2)nc(-c2ccccc2)n1 [Compound 83] | A (EC1.5≦1 uM) | ≥ 300%
27 | CC(=O)c1ccccc1NC(=O)c1cc(N2CCOCC2)nc(-c2ccccc2)n1 [Compound 134] | A (EC1.5≦1 uM) | 150 to 300%
28 | CCN(CCN(C)C)c1cc(C(=O)Nc2ccccc2-c2cnc(-c3ccccc3)[nH]2)nc(-c2ccccc2)n1 [Compound 68] | A (EC1.5≦1 uM) | ≥ 300%
29 | Cc1cnc(-c2ccccc2NC(=O)c2cc(NCCN(C)C)nc(-c3ccccc3)n2)o1 [Compound 23] | B (EC1.5>1 and ≦10 uM) | ≥ 300%
30 | CCCCNC(=O)c1ccccc1NC(=O)c1cc(NCCN(C)C)nc(-c2ccccc2)n1 [Compound 123, N-(2-(butylcarbamoyl)phenyl)-6-(2-(dimethylamino)ethylamino)-2-phenylpyrimidine-4-carboxamide] | C (EC1.5>10 uM) | < 150%
31 | O=C1CN(c2cc(C(=O)Nc3ccccc3-c3nnc(N4CCOCC4)s3)nc(-c3ccccc3)n2)CCN1 [Compound 103] | A (EC1.5≦1 uM) | ≥ 300%
32 | O=C(Nc1ccccc1-c1nncs1)c1cc(OCC(O)CO)nc(-c2ccccc2)n1 (stereo not drawn) [Compound 111] | A (EC1.5≦1 uM) | ≥ 300%
33 | CCN1CCN(c2cc(C(=O)Nc3ccccc3-c3nncs3)nc(-c3ccccc3)n2)CC1=O [Compound 96] | A (EC1.5≦1 uM) | 150 to 300%
